Values quoted from earlier work as cited in US9301985B2, “Therapeutic agent for dementia” (Kibun Foods Inc., priority 2013, dated 2016).

Assays:
k-opioid receptor = k-opioid receptor (Homo sapiens, UniProt P41145); conditions: erinacine E derived from Hericium ramosum
[1] = test system: nerve growth factor (NGF); conditions: erinacine E derived from Hericium erinaceum
[2] = test system: cerebrovascular dementia model and Alzheimer's disease model; conditions: rat; cerebrovascular dementia model (vessel artificially clogged) and Alzheimer's disease model

k-opioid receptor, sequence (P41145 whole entry): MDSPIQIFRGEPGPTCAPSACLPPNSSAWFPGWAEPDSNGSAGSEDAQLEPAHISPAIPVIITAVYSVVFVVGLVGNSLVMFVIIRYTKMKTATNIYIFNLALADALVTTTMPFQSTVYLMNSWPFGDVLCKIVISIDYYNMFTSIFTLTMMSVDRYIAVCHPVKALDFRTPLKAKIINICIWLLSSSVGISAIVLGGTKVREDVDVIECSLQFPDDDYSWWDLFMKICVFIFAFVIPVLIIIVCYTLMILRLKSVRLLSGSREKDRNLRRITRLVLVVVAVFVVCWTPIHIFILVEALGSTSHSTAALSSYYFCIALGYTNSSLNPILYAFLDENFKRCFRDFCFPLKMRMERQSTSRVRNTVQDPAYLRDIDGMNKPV

| Compound | activity at k-opioid receptor (k-opioid receptor) | nerve growth factor (NGF) production [1] | memory retention and learning ability [2] |
| --- | --- | --- | --- |
| CC(C)C1=C2C3CC=C4C(O)C5(O)COC6OC(C4C6(O)C5O)C3(C)CCC2(C)CC1 (stereo not shown) [erinacine E] | agonist | action to accelerate |  |
| CC(C)C1=C2C3=CC=C(C=O)C[C@H](O[C@@H]4OC[C@@H](O)[C@H](O)[C@H]4O)[C@]3(C)CC[C@@]2(C)CC1 [erinacine A] |  |  | apparent improvement |
| CCCCCCCCCCCCCCCC(=O)OCc1cc(OC)c(C/C=C(\C)CC(=O)C=C(C)C)c(O)c1C=O [hericenone C] |  |  | apparent improvement |
